Measurements reported in paper PMC7162492, “Pharmacological and pharmacokinetic profile of the novel ocular hypotensive prodrug CKLP1 in Dutch-belted pigmented rabbits” (PLoS ONE, 2020).
Values joined by “and” are separate entries in the source; they are usually repeats but may differ in a detail not shown here. Identical values can stand only once.

Experiments:
[1] = Tissue and fluid distribution after 90 days of daily topical CKLP1 (LC-MS/MS); assay type: in vivo, Dutch-belted pigmented rabbits; details: topical eye drops 10 mM CKLP1, 90 consecutive days
Procedure: (§1) LC-MS/MS analysis of all fluids were performed using a Waters (Milford, MA) Acquity UPLC BEH C18 column (1.7 μm, 2.1 x 50 mm) with an Agilent EC-C18 pre-column (2.7 μm, 2.1 x 5 mm) and a gradient elution program containing ultra-pure water and acetonitrile with 2.5 mM ammonium formate, at a flow rate of 0.2 ml/min. Flavopiridol was used as an internal standard. The column and auto-sampler temperatures were maintained at 40°C and 4°C, respectively. Source parameters were capillary voltage, 2.6 kV; source temperature, 150°C; desolvation temperature, 500°C; cone gas flow, 150 L/h; and desolvation gas flow, 800 L/h. The cone voltages and collision energies for CKLP1, levcromakalim and flavopiridol were determined by MassLynx-Intellistart software, v4.1, and were 32, 34 and 72 V (cone) and 20, 14 and 30 eV (collision), respectively. The retention times were 4.5 minutes for CKLP1, 5.9 minutes for levcromakalim and 5.7 minutes for flavopiridol.
(§2) To validate accurate measurement of CKLP1 and levcromakalim, known concentrations of CKLP1 (5, 10, 25, 50, 100, 250, 500 ng/ml) and levcromakalim (1, 5, 10, 25, 50, 100, 250 ng/ml) were added to human plasma (obtained from the Mayo Clinic Division of Transfusion Medicine under an Institutional Review Board approved protocol) to make calibration curves. Quality control was determined for each run by using known quantities of CKLP1 and levcromakalim to verify that the instrument recorded values consistent with the established standard curve. The effect of carryover was evaluated by injecting blank samples before and after running the standard samples for calibration curves. Unknown samples with signal to noise ratios >10 were recorded as acceptable concentrations. Samples with signal to noise ratios <10 were reported as not detectable (ND). Controls consisted of a double blank (without analytes and internal standard) and a single blank (only internal standard). The linearity of the calibration curves was determined by plotting the ratios of analytes to internal standard peak areas. The curve was fitted by least squares regression with a 1/x weighting for both CKLP1 and levcromakalim. Data was collected from 3–6.4 minutes for CKLP1 and 4–8 minutes for both levcromakalim and flavopiridol. Waters MassLynx Intellistart software v4.1 was used for analysis.
(§3) All experiments with animals were pre-approved by the Institutional Animal Care and Use Committee of the Mayo Clinic, Rochester, MN and adhered to the recommendations in the Guide for the Care and use of Laboratory Animals of the National Institutes of Health, and the tenets of the ARVO Statement for the Use of Animals in Vision Research. Female Dutch-belted pigmented rabbits (age 7 months) were obtained from Covance Research Products, Inc. (Denver, PA). Rabbits were housed in pairs and kept in a climate controlled room with 12 h light and dark cycles. Animals had unrestrained access to water and standard rabbit food pellets at all times. Upon receipt, animals were acclimated for at least 5 days before initiation of the experiment. IOP was measured with a handheld rebound tonometer (Icare Tonovet, Colonial Medical Supply, Franconia, NH, USA) in conscious and minimally restrained, non-anesthetized rabbits as previously described. Briefly, daily IOP was calculated from the average of 3 independent IOP measurements at 3 different time points each day. These time points corresponded to 1 h, 4 h and 23 h post treatment on any given day. Rabbits that needed to be handled for IOP were subjected to sham IOP measurements for two days prior to initiation of experiment. Rabbits (n = 3) were injected intravenously through the right ear vein with CKLP1 as a bolus dose equal to 0.25 mg/kg body weight. Additional rabbits were treated topically through instillation of 50 μl eye drops of a 10 mM (4.1 mg/ml) solution of CKLP1 in sterile PBS. […]

[2] = Plasma pharmacokinetics after single intravenous injection of CKLP1 (LC-MS/MS); assay type: in vivo, Dutch-belted pigmented rabbits; details: rabbit, intravenous 0.25 mg/kg CKLP1
Procedure: as §1, §2, §3

[3] = Plasma pharmacokinetics after topical eye drops of CKLP1, days 1, 4 and 8 (LC-MS/MS); assay type: in vivo, Dutch-belted pigmented rabbits; details: for AUClast / Clast / Cmax / Tlast / Tmax / half-life: plasma
Procedure: as §1, §2, §3

[4] = tested on: Dutch-belted pigmented rabbits; assay: Tolerability observation during topical CKLP1 treatment for 1, 4 or 8 days; assay type: in vivo; details: topical CKLP1 both eyes for 1, 4 or 8 days
Excerpt: as §3, with “experiment.” for “experiment. Rabbits (n = 3) were injected intravenously through the right ear vein with CKLP1 as a bolus dose equal to 0.25 mg/kg body weight. Additional rabbits were treated topically through instillation of 50 μl eye drops of a 10 mM (4.1 mg/ml) solution of CKLP1 in sterile PBS.”

phosphatases = assay: In vitro cleavage of CKLP1 by phosphatases (unpublished data); assay type: in vitro ADME
[5] = eye drops 10 mM CKLP1 both eyes once daily, Day 4
[6] = eye drops 10 mM CKLP1 both eyes once daily, Day 8
[7] = eye drops 10 mM CKLP1 both eyes, Day 1

For “sodium [CKLP1, sodium [(3S,4R)-6-cyano-2,2-dimethyl-4-(2-oxopyrrolidin-1-yl)-chroman-3-yl phosphate]]”, the “Concentration in Brain” value [1] was “not detected”, the “Concentration in Heart” value [1] was “not detected” and the “Concentration in Kidney” value [1] was 15.8 ±1.8 ng/g and 15.8 ± 1.8 (n = 6/6) ng/g. For the same substance, the “Concentration in Muscle” value [1] was “not detected”, the “Concentration in Plasma” value [1] was “no detectable levels” and the “Concentration in aqueous humor” value [1] was “undetectable”. The “Concentration in vitreous humor” value [1] was “undetectable”, the AUClast [2] was 2164.0 ± 482.5 ng·h/mL and the Clast [2] was 34.9 ± 42.4 ng/mL. It also gave a Cmax [2] of 1968.5 ± 831.0 ng/mL, a Tlast [2] of 5.6 ± 1.8 h and a Tmax [2] of 19.8 ± 23.0 min. It also gave a half-life [2] of 61.8 ± 55.2 min, an AUClast [3, 5] of 360 ± 82 ng·h/mL and a Clast [3, 5] of 4.2 ± 2.6 ng/mL. The Cmax [3, 5] was 30.6 ± 7.3 ng/mL, the Tlast [3, 5] was 24.0 ± 0.0 h and the Tmax [3, 5] was 325.0 ± 268.5 min. It also gave a half-life [3, 5] of 6.7 ± 2.0 min, an AUClast [3, 6] of 341 ± 45.2 ng·h/mL and a Clast [3, 6] of 4.2 ± 1.5 ng/mL. For the same substance, the Cmax [3, 6] was 36.3 ± 13.3 ng/mL, the Tlast [3, 6] was 24.0 ± 0.0 h and the Tmax [3, 6] was 20.0 ± 8.7 min. For the same substance, the half-life [3, 6] was 7.7 ± 3.0 min, the AUClast [3, 7] was 271 ± 55 ng·h/mL and the Clast [3, 7] was 5.1 ± 1.1 ng/mL. It also gave a Cmax [3, 7] of 20.0 ± 6.3 ng/mL, a Tlast [3, 7] of 24.0 ± 0.0 h and a Tmax [3, 7] of 360.0 ± 207.9 min. For the same substance, the half-life [3, 7] was 10.7 ± 4.1 min, the “Amount in plasma after topical CKLP1” value ([3]; topical 10 mM CKLP1 in the eye) was “trace amounts” and the “Tolerability, visible signs of toxicity or discomfort” value [4] was “no visible signs of toxicity or discomfort”. For the same substance, the “Cleavage by phosphatases to cromakalim in vitro” value (phosphatases) was “never completely cleaved”.
